Measured values taken from patent US20250160275A1, “COMPOUNDS FOR MODIFYING MEIOTIC RECOMBINATION AND METHODS RELATING THERETO” (The University of North Carolina at Chapel Hill, priority 2022, published 2025).

Columns and labels:
Type in all cases: in vivo
[1] = tested on: flowering Arabidopsis thaliana plants; experiment: visual fluorescent pollen transgene assay, crossover frequency in interval I2a (chromosome 2)
[2] = tested on: flowering Arabidopsis thaliana plants; experiment: visual fluorescent pollen transgene assay, crossover frequency in interval I5d (chromosome 5)
Experimental: An aqueous solution of 3-aminobutanoic acid was applied to flowering Arabidopsis thaliana plants to enhance the frequency of meiotic recombination (crossovers). Silwet, a spraying adjuvant, was added to the 3-aminobutanoic acid solution at a volume/volume concentration of 0.01%. The solution was applied to the plants by foliar spraying until the plants were drenched. Several concentrations of 3-aminobutanoic acid were used including 0.1, 1, 7.5, 10, 12.5 and 15 mM. As a control, other plants (i.e., control plants) were treated with an aqueous 0.01% solution of Silwet by foliar spraying the solution on the plants until the plants were drenched.
(§1) Crossover frequencies were measured in pollen from treated and control plants using a visual fluorescent pollen transgene assay as described in Francis et al., Proc Natl Acad Sci USA. 2007; 104 (10): 3913-3918. In this assay pollen tetrads are scored as Parental Ditype (PD), Nonparental Ditype (NPD) or Tetratype (TT) and the frequency of those tetrad classes are used to calculate a genetic map distances in centiMorgans (cM) between reporter genes expressing fluorescent proteins. The genetic map distances between a pair of markers on chromosome 5 were compared between control plants and treated plants. The genetic interval between the two markers was designated as I5d. […] In Table 2, each experimental treatment is paired with data from control plants that were treated and scored together and designated with an experiment number in the first column.
An aqueous solution phenethyl isothiocyanate (IUPAC name: 2-isothiocyanatoethylbenzene) was applied to flowering Arabidopsis thaliana plants to enhance the frequency of meiotic recombination (crossovers). Phenethyl isothiocyanate in an aqueous solution containing 10% DMSO and 0.01% Silwet was applied by foliar spray until the plants were drenched. The phenethyl isothiocyanate was first dissolved in 100% DMSO and then diluted to its final concentration with 0.0.1% Silwet in water. Several concentrations of phenethyl isothiocyanate were used including 7.5, 10, and 12.5 mM. Control plants were treated with an aqueous solution of 10% DMSO and 0.01% Silwet by foliar spraying the solution on the control plants until the control plants were drenched.
as §1, with “4,” for “2,”
An aqueous solution BIX-01294 (IUPAC name: N-(1-benzylpiperidin-4-yl)-6,7-dimethoxy-2-(4-methyl-1,4-diazepan-1-yl) quinazolin-4-amine) was applied to flowering Arabidopsis thaliana plants to enhance the frequency of meiotic recombination (crossovers). BIX-01294 in an aqueous solution containing 10% DMSO and 0.01% Silwet was applied by foliar spray until the plants were drenched. The BIX-01294 was first dissolved in 100% DMSO and then diluted to its final concentration with 0.0.1% Silwet in water. Several concentrations of […] were used including 0.5, 1, 2.5 and 5 mM. Control plants were treated with an aqueous solution of 10% DMSO and 0.01% Silwet by foliar spraying the solution on the control plants until the control plants were drenched. […]

[3] = tested on: flowering Arabidopsis thaliana plants; experiment: visual fluorescent pollen transgene assay, crossover frequency in interval I2b (chromosome 2); details: for NPD (Nonparental Ditype pollen tetrads) / PD (Parental Ditype pollen tetrads) / TT (Tetratype pollen tetrads) / genetic map distance: 0.01% Silwet in water, Exp.(1); for genetic map distance: Water control 5.11 cM
[4] = 2.5 mM foliar spray, Example 4, Exp.(1)
[5] = 7.5 mM foliar spray, Example 4, Exp.(1)
[6] = 10 mM foliar spray, Example 4, Exp.(1)
[7] = 0.1 mM foliar spray, 0.01% Silwet in water, Exp.(1)
[8] = 1 mM foliar spray, 0.01% Silwet in water, Exp.(2)
[9] = 10 mM foliar spray, 0.01% Silwet in water, Exp.(1)
[10] = 12.5 mM foliar spray, 0.01% Silwet in water, Exp.(3)
[11] = 15 mM foliar spray, 0.01% Silwet in water, Exp.(3)
[12] = 0.1 mM foliar spray, 10% DMSO and 0.01% Silwet, Exp.(1)
[13] = 0.5 mM foliar spray, 10% DMSO and 0.01% Silwet, Exp.(1)
[14] = 1 mM foliar spray, 10% DMSO and 0.01% Silwet, Exp.(1)
[15] = 2.5 mM foliar spray, 10% DMSO and 0.01% Silwet, Exp.(2)
[16] = 5 mM foliar spray, 10% DMSO and 0.01% Silwet, Exp.(2)
[17] = 1 mM foliar spray, 10% DMSO and 0.01% Silwet, Exp.(2)
[18] = 2.5 mM foliar spray, 10% DMSO and 0.01% Silwet, Exp.(3)
[19] = 5 mM foliar spray, 10% DMSO and 0.01% Silwet, Exp.(3)

With `CC(N)CC(=O)O` (stereo not shown) [3-aminobutanoic acid] the “NPD (Nonparental Ditype pollen tetrads)” value [1, 4] was 0, the “PD (Parental Ditype pollen tetrads)” value [1, 4] was 924 and the “TT (Tetratype pollen tetrads)” value [1, 4] was 67. For the same compound, the genetic map distance ([1]; 2.5 mM foliar spray, Example 4, Exp.(1), DMSO control 2.32 cM, p-value 0.021) was 3.38 cM, the “NPD (Nonparental Ditype pollen tetrads)” value [1, 5] was 0 and the “PD (Parental Ditype pollen tetrads)” value [1, 5] was 914. For the same compound, the “TT (Tetratype pollen tetrads)” value [1, 5] was 66, the genetic map distance ([1]; 7.5 mM foliar spray, Example 4, Exp.(1), DMSO control 2.32 cM, p-value 0.023) was 3.37 cM and the “NPD (Nonparental Ditype pollen tetrads)” value [1, 6] was 0. For the same compound, the “PD (Parental Ditype pollen tetrads)” value [1, 6] was 941, the “TT (Tetratype pollen tetrads)” value [1, 6] was 60 and the genetic map distance ([1]; 10 mM foliar spray, Example 4, Exp.(1), DMSO control 2.32 cM, p-value 0.090) was 3.00 cM. For the same compound, the “meiotic recombination in treated plants compared to control plants” value ([1]; Example 4, 2.5 and 7.5 mM, two of three concentrations (not 10 mM)) was “increased meiotic recombination”, the “NPD (Nonparental Ditype pollen tetrads)” value [2, 7] was 0 and the “PD (Parental Ditype pollen tetrads)” value [2, 7] was 926. The “TT (Tetratype pollen tetrads)” value [2, 7] was 178, the genetic map distance ([2]; 0.1 mM foliar spray, 0.01% Silwet in water, Exp.(1), Water control 5.89 cM, p-value 0.002) was 8.06 cM and the “NPD (Nonparental Ditype pollen tetrads)” value [2, 8] was 0. The “PD (Parental Ditype pollen tetrads)” value [2, 8] was 983, the “TT (Tetratype pollen tetrads)” value [2, 8] was 169 and the genetic map distance ([2]; 1 mM foliar spray, 0.01% Silwet in water, Exp.(2), Water control 5.37 cM, p-value 0.003) was 7.34 cM. For the same compound, the “NPD (Nonparental Ditype pollen tetrads)” value [2, 9] was 0, the “PD (Parental Ditype pollen tetrads)” value [2, 9] was 1092 and the “TT (Tetratype pollen tetrads)” value [2, 9] was 221. For the same compound, the genetic map distance ([2]; 10 mM foliar spray, 0.01% Silwet in water, Exp.(1), Water control 5.89 cM, p-value 0.000) was 8.42 cM, the “NPD (Nonparental Ditype pollen tetrads)” value [2, 10] was 4 and the “PD (Parental Ditype pollen tetrads)” value [2, 10] was 908. The “TT (Tetratype pollen tetrads)” value [2, 10] was 166, the genetic map distance ([2]; 12.5 mM foliar spray, 0.01% Silwet in water, Exp.(3), Water control 5.50 cM, p-value 0.000) was 8.81 cM and the “NPD (Nonparental Ditype pollen tetrads)” value [2, 11] was 2. The “PD (Parental Ditype pollen tetrads)” value [2, 11] was 849, the “TT (Tetratype pollen tetrads)” value [2, 11] was 160 and the genetic map distance ([2]; 15 mM foliar spray, 0.01% Silwet in water, Exp.(3), Water control 5.50 cM, p-value 0.000) was 8.51 cM. The “meiotic recombination in treated plants compared to controls” value ([2]; all concentrations (Table 2: 0.1, 1, 10, 12.5, 15 mM)) was “increase meiotic recombination”, the “NPD (Nonparental Ditype pollen tetrads)” value ([3]; 7.5 mM foliar spray) was 3 and the “PD (Parental Ditype pollen tetrads)” value ([3]; 7.5 mM foliar spray) was 867. For the same compound, the “TT (Tetratype pollen tetrads)” value ([3]; 7.5 mM foliar spray) was 128, the genetic map distance ([3]; 7.5 mM foliar spray, p-value 0.006) was 7.31 cM and the “NPD (Nonparental Ditype pollen tetrads)” value ([3]; 10 mM foliar spray) was 1. The “PD (Parental Ditype pollen tetrads)” value ([3]; 10 mM foliar spray) was 866, the “TT (Tetratype pollen tetrads)” value ([3]; 10 mM foliar spray) was 140 and the genetic map distance ([3]; 10 mM foliar spray, p-value 0.003) was 7.25 cM. For the same compound, the “NPD (Nonparental Ditype pollen tetrads)” value ([3]; 12.5 mM foliar spray) was 0, the “PD (Parental Ditype pollen tetrads)” value ([3]; 12.5 mM foliar spray) was 865 and the “TT (Tetratype pollen tetrads)” value ([3]; 12.5 mM foliar spray) was 155. The genetic map distance ([3]; 12.5 mM foliar spray, p-value 0.000) was 7.60 cM and the “meiotic recombination in treated plants compared to control plants” value ([3]; all three concentrations (7.5, 10, 12.5 mM)) was “increased meiotic recombination”.
For `COc1cc2nc(N3CCCN(C)CC3)nc(NC3CCN(Cc4ccccc4)CC3)c2cc1OC` [BIX-01294, N-(1-benzylpiperidin-4-yl)-6,7-dimethoxy-2-(4-methyl-1,4-diazepan-1-yl) quinazolin-4-amine], the “NPD (Nonparental Ditype pollen tetrads)” value [1, 12] was 0, the “PD (Parental Ditype pollen tetrads)” value [1, 12] was 908 and the “TT (Tetratype pollen tetrads)” value [1, 12] was 59. For the same compound, the genetic map distance ([1]; 0.1 mM foliar spray, 10% DMSO and 0.01% Silwet, Exp.(1), DMSO control 2.19 cM, p-value 0.046) was 3.05 cM, the “NPD (Nonparental Ditype pollen tetrads)” value [1, 13] was 0 and the “PD (Parental Ditype pollen tetrads)” value [1, 13] was 922. For the same compound, the “TT (Tetratype pollen tetrads)” value [1, 13] was 84, the genetic map distance ([1]; 0.5 mM foliar spray, 10% DMSO and 0.01% Silwet, Exp.(1), DMSO control 2.19 cM, p-value 0.000) was 4.17 cM and the “NPD (Nonparental Ditype pollen tetrads)” value [1, 14] was 0. The “PD (Parental Ditype pollen tetrads)” value [1, 14] was 988, the “TT (Tetratype pollen tetrads)” value [1, 14] was 99 and the genetic map distance ([1]; 1 mM foliar spray, 10% DMSO and 0.01% Silwet, Exp.(1), DMSO control 2.19 cM, p-value 0.000) was 4.55 cM. The “NPD (Nonparental Ditype pollen tetrads)” value [1, 15] was 0, the “PD (Parental Ditype pollen tetrads)” value [1, 15] was 777 and the “TT (Tetratype pollen tetrads)” value [1, 15] was 55. For the same compound, the genetic map distance ([1]; 2.5 mM foliar spray, 10% DMSO and 0.01% Silwet, Exp.(2), DMSO control 2.75 cM, p-value 0.163) was 3.31 cM, the “NPD (Nonparental Ditype pollen tetrads)” value [1, 16] was 0 and the “PD (Parental Ditype pollen tetrads)” value [1, 16] was 836. The “TT (Tetratype pollen tetrads)” value [1, 16] was 43, the genetic map distance ([1]; 5 mM foliar spray, 10% DMSO and 0.01% Silwet, Exp.(2), DMSO control 2.75 cM, p-value 0.725) was 2.45 cM and the “meiotic recombination in treated plants compared to control plants” value ([1]; 0.1, 0.5 and 1 mM, three of five concentrations (not 2.5, 5 mM)) was “increased meiotic recombination”. The “NPD (Nonparental Ditype pollen tetrads)” value [2, 13] was 1, the “PD (Parental Ditype pollen tetrads)” value [2, 13] was 936 and the “TT (Tetratype pollen tetrads)” value [2, 13] was 185. For the same compound, the genetic map distance ([2]; 0.5 mM foliar spray, 10% DMSO and 0.01% Silwet, Exp.(1), DMSO control 6.04 cM, p-value 0.001) was 8.51 cM, the “NPD (Nonparental Ditype pollen tetrads)” value [2, 17] was 0 and the “PD (Parental Ditype pollen tetrads)” value [2, 17] was 829. For the same compound, the “TT (Tetratype pollen tetrads)” value [2, 17] was 131, the genetic map distance ([2]; 1 mM foliar spray, 10% DMSO and 0.01% Silwet, Exp.(2), DMSO control 6.73 cM, p-value 0.454) was 6.82 cM and the “NPD (Nonparental Ditype pollen tetrads)” value [2, 18] was 5. For the same compound, the “PD (Parental Ditype pollen tetrads)” value [2, 18] was 888, the “TT (Tetratype pollen tetrads)” value [2, 18] was 169 and the genetic map distance ([2]; 2.5 mM foliar spray, 10% DMSO and 0.01% Silwet, Exp.(3), DMSO control 5.31 cM, p-value 0.000) was 9.37 cM. The “NPD (Nonparental Ditype pollen tetrads)” value [2, 19] was 4, the “PD (Parental Ditype pollen tetrads)” value [2, 19] was 938 and the “TT (Tetratype pollen tetrads)” value [2, 19] was 156. For the same compound, the genetic map distance ([2]; 5 mM foliar spray, 10% DMSO and 0.01% Silwet, Exp.(3), DMSO control 5.31 cM, p-value 0.001) was 8.20 cM and the “meiotic recombination in treated plants compared to controls” value ([2]; 0.5, 2.5 and 5 mM, three of four concentrations (not 1 mM)) was “increase meiotic recombination”.
